For assay [1], the species on record is Homo sapiens. In words: Compound was tested for inhibition of phorbol-induced superoxide generation in human neutrophils using neutrophil assay. The assay is classed as functional.
Assay [2] has as its target T1, Protein kinase C beta type (Homo sapiens, UniProt P05771). In words: Inhibition of Protein kinase C beta 2 expressed in Sf-9 cells.
Assay [3] addresses T2, Protein kinase C delta type (Homo sapiens, UniProt Q05655). In words: Inhibition of Protein kinase C delta expressed in Sf-9 cells.
Assay [4] has as its target T3, Protein kinase C alpha type (Homo sapiens, UniProt P17252). The experiment in a line: Inhibition of Protein kinase C alpha expressed in Sf-9 cells.
Assay [5] deals with T4, Protein kinase C epsilon type (Homo sapiens, UniProt Q02156).
T4 sequence (Q02156 whole entry): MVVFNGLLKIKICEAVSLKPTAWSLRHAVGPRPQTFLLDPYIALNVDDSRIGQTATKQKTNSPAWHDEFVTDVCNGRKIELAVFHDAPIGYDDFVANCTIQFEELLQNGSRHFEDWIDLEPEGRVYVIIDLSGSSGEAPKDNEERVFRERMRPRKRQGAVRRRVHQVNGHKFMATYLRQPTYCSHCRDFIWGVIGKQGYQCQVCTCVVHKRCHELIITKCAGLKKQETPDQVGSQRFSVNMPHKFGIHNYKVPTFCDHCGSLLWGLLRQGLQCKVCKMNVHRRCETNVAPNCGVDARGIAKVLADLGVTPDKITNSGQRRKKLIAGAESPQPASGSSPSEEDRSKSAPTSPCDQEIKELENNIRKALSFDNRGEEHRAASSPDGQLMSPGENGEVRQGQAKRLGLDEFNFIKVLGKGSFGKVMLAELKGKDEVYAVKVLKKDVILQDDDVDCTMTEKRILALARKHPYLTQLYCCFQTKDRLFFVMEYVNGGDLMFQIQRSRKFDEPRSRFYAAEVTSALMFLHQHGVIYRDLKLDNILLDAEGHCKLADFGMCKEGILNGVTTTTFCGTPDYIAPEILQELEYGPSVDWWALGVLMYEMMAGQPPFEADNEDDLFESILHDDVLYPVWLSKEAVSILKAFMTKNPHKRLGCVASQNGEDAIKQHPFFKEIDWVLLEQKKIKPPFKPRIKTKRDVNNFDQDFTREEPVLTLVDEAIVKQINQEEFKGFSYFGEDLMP
In words: Inhibition of protein kinase C epsilon expressed in Sf-9 cells.

The target in assay [6] is T5, Protein kinase C eta type (Homo sapiens, UniProt P24723). The experiment in a line: Inhibition of Protein kinase C eta expressed in Sf-9 cells.
T5 sequence (P24723 whole entry): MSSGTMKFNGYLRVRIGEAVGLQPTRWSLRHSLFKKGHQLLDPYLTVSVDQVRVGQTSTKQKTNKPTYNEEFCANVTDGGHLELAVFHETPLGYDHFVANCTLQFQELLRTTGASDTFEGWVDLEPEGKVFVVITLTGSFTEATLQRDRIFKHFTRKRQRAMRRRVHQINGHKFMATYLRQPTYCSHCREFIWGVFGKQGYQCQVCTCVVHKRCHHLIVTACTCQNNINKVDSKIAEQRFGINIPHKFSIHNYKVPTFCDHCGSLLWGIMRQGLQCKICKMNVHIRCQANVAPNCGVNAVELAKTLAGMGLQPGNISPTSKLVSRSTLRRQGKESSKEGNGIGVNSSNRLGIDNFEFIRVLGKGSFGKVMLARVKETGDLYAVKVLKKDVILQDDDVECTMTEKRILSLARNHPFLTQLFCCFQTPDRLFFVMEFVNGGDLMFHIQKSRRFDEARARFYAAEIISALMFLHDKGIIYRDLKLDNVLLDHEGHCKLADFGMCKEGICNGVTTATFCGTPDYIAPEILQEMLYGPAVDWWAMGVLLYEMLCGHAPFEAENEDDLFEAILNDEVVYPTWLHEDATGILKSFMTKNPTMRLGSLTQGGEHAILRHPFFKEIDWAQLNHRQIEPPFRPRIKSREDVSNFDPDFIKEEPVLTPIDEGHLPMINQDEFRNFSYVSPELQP
For assay [7], the species on record is Homo sapiens. In words: Compound was tested for inhibition of phorbol-induced superoxide generation in human neutrophils using neutrophil assay; value ranges from 0.8-2.1. In kind it is functional.
The species entered for assay [8] is Homo sapiens. The experiment in a line: cells. The assay is classed as functional, organism-based.
The species entered for assay [9] is Homo sapiens. In words: Compound was tested for inhibition of phorbol-induced superoxide generation in human neutrophils after 1 hr pre-incubation at 4 degree C using neutrophil assay. In kind it is functional.
The species entered for assay [10] is Homo sapiens. The experiment in a line: Compound was tested for inhibition of phorbol-induced superoxide generation in human neutrophils using neutrophil assay; value ranges from […]-[…]. In kind it is functional.
The species entered for assay [11] is Homo sapiens. In words: Compound was tested for inhibition of phorbol-induced superoxide generation in human neutrophils after 1 hr pre-incubation at 4 degree C using neutrophil assay; value ranges from 0.33-0.85. The assay is classed as functional.
In assay [12] the target is T1, Protein kinase C beta type. In words: Inhibition of Protein kinase C beta 2 expressed in Sf-9 cells (inactive).
Assay [13] addresses T3, Protein kinase C alpha type. The experiment in a line: Inhibition of Protein kinase C alpha expressed in Sf-9 cells (inactive).
Assay [14] concerns the target T4, Protein kinase C epsilon type. In words: Inhibition of protein kinase C epsilon expressed in Sf-9 cells (inactive).
Assay [15] deals with T2, Protein kinase C delta type. The experiment in a line: Inhibition of Protein kinase C delta expressed in Sf-9 cells (inactive).
Assay [16] deals with T5, Protein kinase C eta type. In words: Inhibition of Protein kinase C eta expressed in Sf-9 cells (inactive).
Assay [17] is filed under the species Homo sapiens. The experiment in a line: Compound was tested for inhibition of phorbol-induced superoxide generation in human neutrophils after 1 hr pre-incubation at 4 degree C using neutrophil assay; value ranges from 2.8-10. In kind it is functional.

Each structure is given as a SMILES string. Bounds are passed on as bounds.

T2 sequence (Q05655 whole entry): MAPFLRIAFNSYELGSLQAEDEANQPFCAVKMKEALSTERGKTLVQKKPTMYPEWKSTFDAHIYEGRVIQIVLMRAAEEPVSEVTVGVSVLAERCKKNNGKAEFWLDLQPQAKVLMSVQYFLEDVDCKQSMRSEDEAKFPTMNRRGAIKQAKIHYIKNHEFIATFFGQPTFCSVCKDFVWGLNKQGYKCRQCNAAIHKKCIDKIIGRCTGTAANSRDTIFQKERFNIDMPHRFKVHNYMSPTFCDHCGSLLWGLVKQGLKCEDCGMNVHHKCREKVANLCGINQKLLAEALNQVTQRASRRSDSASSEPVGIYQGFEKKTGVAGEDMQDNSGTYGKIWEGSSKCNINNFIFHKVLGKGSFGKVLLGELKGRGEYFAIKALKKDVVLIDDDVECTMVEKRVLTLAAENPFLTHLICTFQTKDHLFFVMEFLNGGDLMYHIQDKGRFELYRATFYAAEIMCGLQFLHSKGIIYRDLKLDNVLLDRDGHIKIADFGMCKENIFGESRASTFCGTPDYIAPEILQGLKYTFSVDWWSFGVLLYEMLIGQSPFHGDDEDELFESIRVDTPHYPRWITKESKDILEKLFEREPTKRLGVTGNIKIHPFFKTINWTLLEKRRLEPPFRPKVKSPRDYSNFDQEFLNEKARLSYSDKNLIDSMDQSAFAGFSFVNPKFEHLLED
T1 sequence (P05771 whole entry): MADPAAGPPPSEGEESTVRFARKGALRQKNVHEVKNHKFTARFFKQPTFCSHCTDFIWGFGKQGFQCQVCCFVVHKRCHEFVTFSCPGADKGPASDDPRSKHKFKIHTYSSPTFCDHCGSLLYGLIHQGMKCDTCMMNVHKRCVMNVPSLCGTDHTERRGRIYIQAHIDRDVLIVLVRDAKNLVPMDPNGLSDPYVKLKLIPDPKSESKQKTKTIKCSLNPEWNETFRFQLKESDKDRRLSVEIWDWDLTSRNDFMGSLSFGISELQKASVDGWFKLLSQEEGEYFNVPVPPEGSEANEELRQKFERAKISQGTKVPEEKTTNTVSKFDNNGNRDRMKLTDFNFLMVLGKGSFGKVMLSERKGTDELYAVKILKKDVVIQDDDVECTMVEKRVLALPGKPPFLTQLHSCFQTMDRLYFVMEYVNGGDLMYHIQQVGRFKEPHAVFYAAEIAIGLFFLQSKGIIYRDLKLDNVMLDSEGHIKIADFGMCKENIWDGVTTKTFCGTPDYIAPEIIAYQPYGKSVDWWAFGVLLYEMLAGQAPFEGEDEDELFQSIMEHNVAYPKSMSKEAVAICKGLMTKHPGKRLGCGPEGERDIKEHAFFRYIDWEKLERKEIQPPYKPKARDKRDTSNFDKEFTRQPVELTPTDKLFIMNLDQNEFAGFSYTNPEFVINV

As a reminder, the IC50 is the midpoint of a concentration-inhibition curve. A lower IC50 goes with greater potency. On to `CCCCOC(=O)c1cccc(O)c1C(=O)c1c(O)cc(C(=O)O[C@@H]2CNC[C@H]2NC(=O)c2ccc(O)cc2)cc1O`, for which the IC50 in the assay filed under Homo sapiens [1] (Homo sapiens) was more than 10000 nM; in [2], 2200 nM; in [3] it was 80 nM; in [4], 3100 nM; in assay [5] it was 3700 nM; in [6], 40 nM.

As to `COC(=O)c1cccc(O)c1C(=O)c1c(O)cc(C(=O)O[C@@H]2CCC[C@H]2NC(=O)c2ccc(O)cc2)cc1O` (racemic), the IC50 in the assay listed under Homo sapiens [7] is more than 800 nM; in the assay filed under Homo sapiens [8], more than 1720 nM; in assay [2], 330 nM; in assay [3], 30 nM; in assay [4], 320 nM; in assay [5], 260 nM. Moreover, the IC50 in [6] is 30 nM.

Take `O=C(N[C@@H]1CNC[C@H]1OC(=O)c1cc(O)c(C(=O)c2c(O)cccc2C(=O)OCC2CCCCC2)c(O)c1)c1ccc(O)cc1`: the IC50 in the assay listed under Homo sapiens [1] (Homo sapiens) was more than 10000 nM; in [2], 22000 nM; in assay [3] it was 310 nM; in assay [4], 17000 nM; in assay [5], 25000 nM; in assay [6] it was 50 nM.

In the assay filed under Homo sapiens [9], `O=C(N[C@@H]1CCC[C@H]1OC(=O)c1cc(O)c(C(=O)c2c(O)cccc2C(=O)O)c(O)c1)c1ccc(O)cc1` came in with an IC50 of more than 10000 nM.

Take `CC(C)(C)C(=O)OCOC(=O)c1cccc(O)c1C(=O)c1c(O)cc(C(=O)O[C@@H]2CCC[C@H]2NC(=O)c2ccc(O)cc2)cc1O`: the IC50 is more than 3680 nM in the assay filed under Homo sapiens [10]; more than 330 nM in the assay listed under Homo sapiens [11]; “Not Active” in assay [12]; “Not Active” in assay [13]; “Not Active” in assay [14]; “Not Active” in assay [15]. Further, the IC50 entry in assay [16] was “Not Active”.

For `CC(C)COC(=O)c1cccc(O)c1C(=O)c1c(O)cc(C(=O)O[C@@H]2CNC[C@H]2NC(=O)c2ccc(O)cc2)cc1O`, the IC50 is more than 10000 nM in the assay listed under Homo sapiens [1] (Homo sapiens); 20000 nM in [2]; 200 nM in assay [3]; 19000 nM in assay [4]; 3200 nM in [5]; 50 nM in assay [6].

`O=C(N[C@@H]1CNC[C@H]1OC(=O)c1cc(O)c(C(=O)c2c(O)cccc2C(=O)O)c(O)c1)c1ccc(O)cc1`: in the assay listed under Homo sapiens [1] (Homo sapiens), the IC50 is more than 50000 nM.

Take `CCOC(=O)c1cccc(O)c1C(=O)c1c(O)cc(C(=O)O[C@@H]2CNC[C@H]2NC(=O)c2ccc(O)cc2)cc1O`: the IC50 in the assay listed under Homo sapiens [1] (Homo sapiens) was more than 10000 nM; in assay [2] it was 1000 nM; in assay [3], 50 nM; in assay [4], 2200 nM; in [5], 1300 nM; in [6], 20 nM.

Turning to `CCOC(=O)c1cccc(O)c1C(=O)c1c(O)cc(C(=O)O[C@@H]2CCC[C@H]2NC(=O)c2ccc(O)cc2)cc1O`, the IC50 was more than 2600 nM in the assay filed under Homo sapiens [1] (Homo sapiens); 1600 nM in assay [2]; 67 nM in assay [3]; 920 nM in assay [4]; 660 nM in assay [5]; 52 nM in assay [6].

In turn, `O=C(N[C@@H]1CNCCC[C@H]1OC(=O)c1cc(O)c(C(=O)c2c(O)cccc2C(=O)O)c(O)c1)c1ccc(O)cc1` [BALANOL] displayed a half-maximal inhibitory concentration (IC50) in the assay listed under Homo sapiens [1] (Homo sapiens) of more than 10000 nM.

Take `COC(=O)c1cccc(O)c1C(=O)c1c(O)cc(C(=O)O[C@@H]2CNC[C@H]2NC(=O)c2ccc(O)cc2)cc1O`: the IC50 in the assay filed under Homo sapiens [1] (Homo sapiens) is more than 50000 nM; in [2], 290 nM; in assay [3], 18 nM; in assay [4], 250 nM; in assay [5], 170 nM; in [6], 16 nM.

With `CC(C)(C)C(=O)OCOC(=O)c1cccc(O)c1C(=O)c1c(O)cc(C(=O)O[C@@H]2CNC[C@H]2NC(=O)c2ccc(O)cc2)cc1O`, the IC50 in the assay filed under Homo sapiens [17] was more than 2800 nM; in assay [2] it was 20 nM; in assay [3] it was 10 nM; in assay [4] it was 160 nM; in assay [5] it was 34 nM; in assay [6], 4 nM.

Take `CC(=O)OCOC(=O)c1cccc(O)c1C(=O)c1c(O)cc(C(=O)O[C@@H]2CNC[C@H]2NC(=O)c2ccc(O)cc2)cc1O`: the IC50 in the assay filed under Homo sapiens [9] is more than 10000 nM; in assay [2], 20 nM; in assay [3] it was 24 nM; in assay [4] it was 130 nM; in [5], 130 nM; in [6] it was 14 nM.

Turning to `COC(=O)c1cccc(O)c1C(=O)c1c(O)cc(C(=O)O[C@@H]2CCC[C@H]2NC(=O)c2ccc(O)cc2)cc1O` (stereo in doubt; 8 (-)), the IC50 is more than 1500 nM in the assay listed under Homo sapiens [1]; 40 nM in [2]; 5 nM in [3]; 210 nM in [4]; 300 nM in assay [5]; 4 nM in assay [6].

For `COC(=O)c1cccc(O)c1C(=O)c1c(O)cc(C(=O)O[C@@H]2CCC[C@H]2NC(=O)c2ccc(O)cc2)cc1O` (stereo in doubt; 8 (+)), the IC50 was more than 10000 nM in the assay filed under Homo sapiens [1]; 1800 nM in assay [2]; 250 nM in [3]; 4200 nM in assay [4]; 20000 nM in assay [5]; 400 nM in assay [6].

`CC(C)OC(=O)c1cccc(O)c1C(=O)c1c(O)cc(C(=O)O[C@@H]2CCC[C@H]2NC(=O)c2ccc(O)cc2)cc1O`: the IC50 is more than 10000 nM in the assay listed under Homo sapiens [1] (Homo sapiens); 440 nM in assay [2]; 50 nM in assay [3]; 4700 nM in [4]; 13000 nM in [5]; 260 nM in assay [6].
